Target: T1, human PAH with the R408W mutation (Homo sapiens, UniProt P00439, R408W)
T1 construct: expressed in transfected cells
T1 sequence (P00439 1-452 R408W): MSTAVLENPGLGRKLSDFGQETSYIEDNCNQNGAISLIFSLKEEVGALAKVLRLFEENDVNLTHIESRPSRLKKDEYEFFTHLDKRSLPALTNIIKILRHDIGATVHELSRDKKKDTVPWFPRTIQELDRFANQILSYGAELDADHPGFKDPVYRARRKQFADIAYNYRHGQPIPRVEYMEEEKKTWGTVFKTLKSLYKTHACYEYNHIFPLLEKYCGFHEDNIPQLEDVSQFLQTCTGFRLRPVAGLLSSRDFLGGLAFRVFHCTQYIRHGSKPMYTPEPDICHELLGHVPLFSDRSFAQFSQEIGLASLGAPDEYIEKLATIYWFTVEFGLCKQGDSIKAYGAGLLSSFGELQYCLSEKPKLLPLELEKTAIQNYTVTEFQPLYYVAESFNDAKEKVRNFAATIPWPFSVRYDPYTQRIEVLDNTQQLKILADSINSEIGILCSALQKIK
Test: Cell Based Phenylalanine Flux Assay;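 further: after compound treatment, cells received sepiapterin plus isotope-labelled Phenylalanine for 4 hours, then labelled Tyrosine in the medium was quantified, 10-point 2-fold dilution series run in duplicate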
Conditions: A375 cells expressing human R408W PAH; 24 hrs compound incubation; 13C-Tyrosine by LC-MS; average where tested multiple times; read-out: AC50

Compared with `O=C(c1cnn2cc(-c3ccccn3)ccc12)N1CCc2[nH]cnc2[C@@H]1c1cc2ccccn2n1` [Example 1417, (R)-(4-(pyrazolo[1,5-a]pyridin-2-yl)-6,7-dihydro-1H-imidazo[4,5-c]pyridin-5(4H)-yl)(6-(pyridin-2-yl)pyrazolo[1,5-a]pyridin-3-yl)methanone], `O=C(c1nnc(-c2ccccn2)o1)N1CCc2[nH]cnc2[C@H]1c1cc2cccc(C(F)F)n2n1` [Example 1421, (S)-(4-(7-(difluoromethyl)pyrazolo[1,5-a]pyridin-2-yl)-6,7-dihydro-1H-imidazo[4,5-c]pyridin-5(4H)-yl)(5-(pyridin-2-yl)-1,3,4-oxadiazol-2-yl)methanone] is lower in AC50: 1000 to 5000 nM for the first, < 500 nM for the second.

Compared with `CC(C)(C)c1nnc(C(=O)N2CCc3[nH]cnc3[C@@H]2c2cc3cccc(C(F)F)n3n2)o1` [Example 1418, (R)-(5-(tert-butyl)-1,3,4-oxadiazol-2-yl)(4-(7-(difluoromethyl)pyrazolo[1,5-a]pyridin-2-yl)-6,7-dihydro-1H-imidazo[4,5-c]pyridin-5(4H)-yl)methanone], `Cn1ccc(-c2nnc(C(=O)N3CCc4[nH]cnc4[C@H]3c3cc4cccc(C(F)F)n4n3)o2)n1` [Example 1438, (S)-(4-(7-(difluoromethyl)pyrazolo[1,5-a]pyridin-2-yl)-6,7-dihydro-1H-imidazo[4,5-c]pyridin-5(4H)-yl)(5-(1-methyl-1H-pyrazol-3-yl)-1,3,4-oxadiazol-2-yl)methanone] is lower in AC50: 1000 to 5000 nM for the first, 500 to 1000 nM for the second.

`O=C(c1nnc(-c2cccnc2)o1)N1CCc2[nH]cnc2[C@H]1c1cc2c(C(F)F)cccn2n1` [Example 1422, (S)-(4-(4-(difluoromethyl)pyrazolo[1,5-a]pyridin-2-yl)-6,7-dihydro-1H-imidazo[4,5-c]pyridin-5(4H)-yl)(5-(pyridin-3-yl)-1,3,4-oxadiazol-2-yl)methanone] and `O=C(c1nnc(-c2ncccc2F)o1)N1CCc2[nH]cnc2[C@H]1c1cc2c(C(F)F)cccn2n1` [Example 1426, (S)-(4-(4-(difluoromethyl)pyrazolo[1,5-a]pyridin-2-yl)-6,7-dihydro-1H-imidazo[4,5-c]pyridin-5(4H)-yl)(5-(3-fluoropyridin-2-yl)-1,3,4-oxadiazol-2-yl)methanone] cannot be ordered by AC50: < 500 nM for the first, < 500 nM for the second.

First: COc1ccc(-c2nnc(C(=O)N3CCc4[nH]cnc4[C@@H]3c3cc4c(C(F)F)cccn4n3)o2)nc1 [Example 1425, (R)-(4-(4-(difluoromethyl)pyrazolo[1,5-a]pyridin-2-yl)-6,7-dihydro-1H-imidazo[4,5-c]pyridin-5(4H)-yl)(5-(5-methoxypyridin-2-yl)-1,3,4-oxadiazol-2-yl)methanone]
Second: O=C(c1nnc(-c2ncccc2F)o1)N1CCc2[nH]cnc2[C@@H]1c1cc2c(C(F)F)cccn2n1 [Example 1427, (R)-(4-(4-(difluoromethyl)pyrazolo[1,5-a]pyridin-2-yl)-6,7-dihydro-1H-imidazo[4,5-c]pyridin-5(4H)-yl)(5-(3-fluoropyridin-2-yl)-1,3,4-oxadiazol-2-yl)methanone]
The AC50 of the first is lower: 1000 to 5000 nM for the first, > 5000 nM for the second.

First: Cc1cccc(-c2nnc(C(=O)N3CCc4[nH]cnc4[C@@H]3c3cc4c(Cl)cccn4n3)o2)n1 [Example 1430, (R)-(4-(4-chloropyrazolo[1,5-a]pyridin-2-yl)-6,7-dihydro-1H-imidazo[4,5-c]pyridin-5(4H)-yl)(5-(6-methylpyridin-2-yl)-1,3,4-oxadiazol-2-yl)methanone]
Second: Cc1cccc(-c2nnc(C(=O)N3CCc4[nH]cnc4[C@@H]3c3cc4c(C(F)(F)F)cccn4n3)o2)n1 [Example 1432, (R)-(5-(6-methylpyridin-2-yl)-1,3,4-oxadiazol-2-yl)(4-(4-(trifluoromethyl)pyrazolo[1,5-a]pyridin-2-yl)-6,7-dihydro-1H-imidazo[4,5-c]pyridin-5(4H)-yl)methanone]
The AC50 of the first is higher: > 5000 nM for the first, 1000 to 5000 nM for the second.

Source: patent publication US20230365592A1 (Agios Pharmaceuticals, Inc., priority 2022, published 2023)
